PubChem BioAssay (NCI)
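Tested at 5 concentrations; 48 h exposure; 96-well plates; endpoints linearly interpolated, else capped at highest concentration. GI50 = concentration required for 50% inhibition of growth. Definition used: TGI = concentration required for complete inhibition of growth.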

Key:
Test in all cases: NCI-60 cell line screen, 48 h
[1] = test system: UO-31 renal
[2] = test system: HOP-92 NSCLC
[3] = test system: HT29 colon
[4] = test system: OVCAR-3 ovarian
[5] = test system: HCT-116 colon
[6] = test system: EKVX NSCLC
[7] = test system: NCI-H23 lung
[8] = test system: HS 578T breast
[9] = test system: MDA-MB-231 breast
[10] = test system: SNB-19 CNS

| SMILES | TGI [1] | TGI [2] | TGI [3] | TGI [4] | TGI [5] | TGI [6] | TGI [7] | TGI [8] | TGI [9] | TGI [10] | GI50 [1] | GI50 [2] | GI50 [3] | GI50 [4] | GI50 [6] | GI50 [7] | GI50 [8] | GI50 [9] | GI50 [10] | GI50 [5] |
| --- | --- | --- | --- | --- | --- | --- | --- | --- | --- | --- | --- | --- | --- | --- | --- | --- | --- | --- | --- | --- |
| Fc1c(F)c(C(F)(F)F)c(F)c(F)c1N/N=C/c1cn(Cc2ccccc2)c2ccccc12 | 52.9 µM | 60.2 µM | 49.3 µM | 36.6 µM | 89.5 µM | 43 µM | 79.9 µM | > 100 µM | 45.6 µM | 76.8 µM | – | – | – | – | – | – | – | – | – | – |
| COc1cc2c(cc1OCCCN1CCN(c3ncnc4ccccc34)CC1)N=CC1CCCN1C2=O (stereo not drawn) | 0.558 µM | 0.0529 µM | – | 0.0595 µM | – | 0.677 µM | 0.0819 µM | 0.0568 µM | 0.0736 µM | 11.2 µM | 0.0754 µM | 0.0199 µM | 0.0298 µM | 0.0269 µM | 0.152 µM | 0.0268 µM | < 0.0177 µM | 0.0205 µM | 0.041 µM | – |
| C[C@]12CCC(=O)C=C1CC[C@@H]1[C@@H]2[C@@H](O)C[C@@]2(C)[C@H]1CC[C@]2(O)C(=O)COC(=O)C1CCCC1 | > 100 µM | > 100 µM | > 100 µM | > 100 µM | > 100 µM | > 100 µM | > 100 µM | > 100 µM | > 100 µM | > 100 µM | – | – | – | – | – | – | – | – | – | – |
| COc1ccc2c(c1)CC[C@@H]1[C@@H]2CC[C@]2(C)C(=O)/C(=C/c3ccc(O)c(OC)c3)C[C@@H]12 | > 100 µM | > 100 µM | > 100 µM | > 100 µM | – | > 100 µM | > 100 µM | – | > 100 µM | > 100 µM | – | – | – | – | – | – | – | – | – | – |
| COc1ccc(C2C(C=O)C(N3CCN(C)CC3)=Nc3nc4ccccc4n32)cc1 (stereo not drawn) | 32.4 µM | 24.3 µM | 36.8 µM | 40.5 µM | 29.8 µM | 97.3 µM | 44.8 µM | > 100 µM | 31.4 µM | 41 µM | – | – | – | – | – | – | – | – | – | – |
| O=C(c1cccs1)N(Cc1cccnc1)C(=S)N(Cc1cccnc1)C(=O)c1cccs1 | > 100 µM | > 100 µM | > 100 µM | > 100 µM | > 100 µM | > 100 µM | > 100 µM | > 100 µM | > 100 µM | > 100 µM | – | – | – | – | – | – | – | – | – | – |
| NC(CC(=O)O)(Cc1ccccc1)C(=O)O (stereo not drawn) | > 100 µM | > 100 µM | > 100 µM | > 100 µM | > 100 µM | > 100 µM | > 100 µM | > 100 µM | > 100 µM | > 100 µM | – | – | – | – | – | – | – | – | – | – |
| Cn1c(=O)c2c(nc(NCCNc3nc4c(c(=O)n(C)c(=O)n4C)n3C)n2C)n(C)c1=O | > 100 µM | > 100 µM | > 100 µM | > 100 µM | > 100 µM | > 100 µM | > 100 µM | > 100 µM | > 100 µM | > 100 µM | – | – | – | – | – | – | – | – | – | – |
| COc1ccc(C2=NN(C(=O)c3cccnc3)C(O)(c3cc(F)c(Cl)cc3Cl)C2)cc1OC (stereo not drawn) | 85 µM | 50.8 µM | 34.9 µM | 27.6 µM | 29.2 µM | 73.6 µM | 71.7 µM | 66.9 µM | 37.9 µM | > 100 µM | – | – | – | – | – | – | – | – | – | – |
| Nc1nc(=O)n(CC(O)CO)s1 (stereo not drawn) | > 100 µM | – | > 100 µM | > 100 µM | > 100 µM | > 100 µM | > 100 µM | – | – | > 100 µM | – | – | – | – | – | – | – | – | – | – |
| O=C(NNC(=O)c1nsc2ccccc12)c1ccc(Cl)cc1 | 55.4 µM | 32.8 µM | 41.8 µM | 36.6 µM | 39.2 µM | 42.3 µM | 59.9 µM | – | – | 42.3 µM | – | – | – | – | – | – | – | – | – | – |
| Cc1ccc(SSCCCCCS(=O)O)cc1 | 67.2 µM | – | > 100 µM | 74.7 µM | 28.4 µM | > 100 µM | 88.9 µM | – | – | > 100 µM | – | – | – | – | – | – | – | – | – | – |
| COc1ccc2nc3ccccc3c(NCc3ccc(C)cc3)c2c1 | 2.65 µM | 3.12 µM | 7.16 µM | 4.36 µM | 6.24 µM | 7.94 µM | 4.26 µM | – | 4.12 µM | 11.4 µM | 1.28 µM | 1.27 µM | 1.43 µM | 2 µM | 2.5 µM | 1.68 µM | – | 1.76 µM | 2.97 µM | 0.848 µM |
| COc1ccc(C)cc1Nc1nnc(-c2ccc(N)cc2)s1 | > 100 µM | > 100 µM | > 100 µM | > 100 µM | > 100 µM | > 100 µM | > 100 µM | > 100 µM | – | > 100 µM | – | – | – | – | – | – | – | – | – | – |
| O=C(COc1ccc(Cl)cc1Cl)N/N=C/C=C/c1ccc([N+](=O)[O-])o1 | > 100 µM | – | > 100 µM | > 100 µM | – | > 100 µM | 39 µM | 7.4 µM | 95.6 µM | 41.4 µM | – | – | – | – | – | – | – | – | – | – |
| N#C[S-].[Ce+3].c1cnc2c(c1)ccc1cccnc12.c1cnc2c(c1)ccc1cccnc12.c1cnc2c(c1)ccc1cccnc12 | 11.5 µM | 22.7 µM | 23.9 µM | 14.9 µM | 5.5 µM | 17.4 µM | 75.6 µM | – | – | 22.5 µM | – | – | – | – | – | – | – | – | – | – |
| CC(=O)C1=C(O)CCC1=O | > 100 µM | > 100 µM | > 100 µM | > 100 µM | > 100 µM | > 100 µM | > 100 µM | > 100 µM | – | > 100 µM | – | – | – | – | – | – | – | – | – | – |
| CCOC(=O)c1c(CN2CCCC2)n(-c2ccccc2)c2cc(Br)c(OC)cc12 | 29.8 µM | 33.2 µM | 24 µM | 61.2 µM | 26.5 µM | 55.5 µM | 63.3 µM | > 100 µM | 70.4 µM | > 100 µM | – | – | – | – | – | – | – | – | – | – |
| COc1cc2c(cc1OC)-c1cc3ccc(OC)c(OC)c3c[n+]1CC2 | > 100 µM | > 100 µM | > 100 µM | > 100 µM | > 100 µM | > 100 µM | – | > 100 µM | > 100 µM | 68 µM | – | – | – | – | – | – | – | – | – | – |
